One assay has as its system EFM-19 cells. Put plainly: Ki-67 protein expression, EFM-19. Format: cell-based. To be noted: Homo sapiens, 2 DT, read-out: EC50 Ki-67 levels. As for the experimental part:
(§1) Relative IC50/EC50 values were determined by curve fitting to a four parameter logistic equation: Y = bottom + ((top-bottom)/ (1+exp(HillSlope*(X – LnIC50)), where X is the natural log of dose/concentration, Y is response, decreasing as X increases, top and bottom are plateaus in the same units as Y, lnIC50 is the natural log of potency, in the same log units as X, and HillSlope measures the steepness of the curve. Data were plotted using GraphPad Prism.
(§2) After 72 hours, cells were stained with an anti-FOXM1 antibody and a secondary goat anti-rabbit IgG, Alexa Fluor® 488 conjugate; nuclei were stained with propidium iodide (PI). Alternatively, for assessment of Ki-67 levels, cells were treated for 2 DT and then stained with Ki-67 and a secondary goat anti-rabbit IgG, Alexa Fluor® 488 conjugate. Plates were read in an Acumen Explorer Ex3 (TTP Labtech) using Cellista software and the percentages of FOXM1 positive and Ki-67 positive cells were calculated over the background signal. Data were normalized in Excel using the mean value obtained from treatment with 2 µM BEZ235 as the minimum and the mean value obtained from treatment with 0.2% DMSO as the maximum.

Another assay relates to ZR-75-1 xenograft tumors. Put plainly: In vivo target inhibition, immunoblotting of ZR-75-1 xenograft tumors. Details: species or system mouse. Conditions: 50 or 75 mg/kg QD x 5, Western blots. As for the experimental part: (§3) Control animals were treated with vehicle (1% HEC/ 25 mM phosphate buffer, pH = 2) using the same schedule of dosing. The red bar just above the X-axis illustrates the duration of the treatment period. Tumor volume measurements were taken routinely during the course of the study and are plotted as mean +/- SEM versus days following tumor cell implantation. (B) Body weights were recorded routinely during the course of the study and are plotted as mean % change (+/– SEM) relative to the mean body weight recorded on the day just prior to the first day of dosing (baseline day = 27). (C) The waterfall plots indicate the relative tumor volumes for individual animals which were determined at the end of the dosing period (study day 55). […] Growth inhibition is observed in those instances where the calculated changes in %DT/C are less than 100% whereby greater inhibition results in smaller %DT/C values. Change in %DT/C values that are less than zero indicate regressions whereby the tumor volumes on day 55 are smaller than the baseline tumor volume measured on the day prior to the initiation of dosing (baseline day = day 27). […] The tumor volumes measured on day 27 served as the baseline volumes for the calculation of %DT/C. […] Potential CDK9 inhibition was assessed by measuring the expression of MCL1 or phosphorylation of serine 2 on the C-terminal domain repeat on RNA polymerase II (pCTD). […]
Background: In western blotting, separated proteins are transferred to a membrane and probed.

The test system of the next assay is ZR-75-1 xenograft. Put plainly: ZR-75-1 xenograft efficacy in NOD SCID mice. Format: in vivo, mouse. As for the experimental part:
as §3

The next assay concerns pRb (Ser780). Kind of assay: High content imaging of Rb phosphorylation (Ser780), EFM-19. To be noted: Homo sapiens, 16 hours, mean ± Stdev n = 2. Format: cell-based. The procedure: as §1
As controls, cells were treated with 10 µM palbociclib or vehicle ( 0.2 % v/v DMSO). Additional details for cell-based assays are provided in the Supplemental Methods. […]
www.impactjournals.com/oncotarget/ Oncotarget Supplementary Materials
Preclinical characterization of abemaciclib in hormone receptor […]
METHODS High content imaging cell-based assays for monitoring phosphorylation of Rb (ser780), G1 arrest and
Enzyme kinetics of CDK6/cyclin D3 complexes Cells were fixed with para-formaldehyde and Rb phosphorylation at Serine 780 was detected using CDK6/cyclin D3 activity was measured by the a primary mouse anti-Rb (PS780) antibody followed phosphorylation of CTRF using [g-33P] […] Plates were read in an kinase buffer containing 68 mM Hepes at pH 7.5, 6.67 mM Acumen Explorer eX3 (TTP Labtech). […]
(EDTA) was used to determine the level of background evaluated by measuring PI signal using high content 33P in the absence of enzyme activity. […]

The next assay concerns MCF7 cells. Kind of assay: Ki-67 protein expression, MCF7. Format: cell-based. Conditions: Homo sapiens, 2 DT, read-out: EC50 Ki-67 levels. The procedure: as §1, §2

For orientation: EC50 means the concentration giving half of the maximal effect. The term IC50 denotes the point on the concentration scale where inhibition reaches its midpoint. High values mean weaker potency in that assay, low ones greater potency in that assay. Consider `CCN1CCN(Cc2ccc(Nc3ncc(F)c(-c4cc(F)c5nc(C)n(C(C)C)c5c4)n3)nc2)CC1` [abemaciclib, Abemaciclib], for which the EC50 is 16.7 nM with EFM-19 cells and 42.1 nM in the assay with MCF7 cells. Further, the “CDK9 inhibition in tumors (pCTD, MCL1 expression)” value in the assay on ZR-75-1 xenograft tumors is on record as “not inhibited at any dose”. The “phospho-(Ser780/807/811)-Rb, Topo IIα and phospho-(Ser10)-H3 in tumors” value with ZR-75-1 xenograft tumors (tumors collected 24 hours later) is given as “inhibition of phospho-(Ser780/807/811)-Rb”. Besides, the tumor volume result in the assay on ZR-75-1 xenograft (75 mg/kg PO QDx28, NOD SCID mice, ZR-75-1 xenograft) is recorded as “measured reduction in tumor volume (regression)”. For the same compound, the anti-tumor activity result in the assay on ZR-75-1 xenograft (50 or 75 mg/kg PO QDx28, single agent) was “Dose-dependent anti-tumor activity”. In addition, the IC50 in the assay on pRb (Ser780) worked out at 12 ± 11 nM.
